From patent publication US6831199B1, “Pyrimidine compounds and derivatives thereof” (G. D. Searle & Co., priority 1995, dated 2004)
Structures can show the parent of a compound that is named as a salt.

What was measured:
[1] = molecular target: T1, Human vitronectin receptor (αvβ3) (Homo sapiens, UniProt P05106+P06756); assay: Vitronectin adhesion assay (solid phase receptor assay, competition with biotinylated vitronectin); format: binding; settings: read-out: AvB3 IC50
T1 construct: Human vitronectin receptor (αvβ3) was purified from human placenta; from tissue; host or cells: human placenta
Description: VITRONECTIN ADHESION ASSAY
Assay buffer, OPD substrate tablets, and RIA grade BSA were obtained from Sigma (St. Louis, Mo.). Anti-biotin antibody was obtained from Calbiochem (La Jolla, Calif.). Linbro microtiter plates were obtained from Flow Labs (McLean, Va.). ADP reagent was obtained from Sigma (St. Louis, Mo.).
(§1) Solid Phase Receptor Assays
(§2) The purified human vitronectin receptor (αvβ3) was diluted from stock solutions to 1.0 μg/mL in Tris-buffered saline containing 1.0 mM Ca^++, Mg^++, and Mn^++, pH 7.4 (TBS^+++). The diluted receptor was immediately transferred to Linbro microtiter plates at 100 μL/well (100 ng receptor/well). The plates were sealed and incubated overnight at 4° C. to allow the receptor to bind to the wells. All remaining steps were at room temperature. The assay plates were emptied and 200 μL of 1% RIA grade BSA in TBS^+++(TBS^+++/BSA) were added to block exposed plastic surfaces. Following a 2 hour incubation, the assay plates were washed with TBS^+++ using a 96 well plate washer. Logarithmic serial dilution of the test compound and controls were made starting at a stock concentration of 2 mM and using 2 nM biotinylated vitronectin in TBS^+++/BSA as the diluent. This premixing of labeled ligand with test (or control) ligand, and subsequent transfer of 50 μL aliquots to the assay plate was carried out with a CETUS Propette robot; the final concentration of the labeled ligand was 1 nM and the highest concentration of test compound was 1.0×10^−4 M. The competition occurred for two hours after which all wells were washed with a plate washer as before. Affinity purified horseradish peroxidase labeled goat anti-biotin antibody was diluted 1:3000 in TBS^+++/BSA and 125 μL were added to each well. After 30 minutes, the plates were washed and incubated with OPD/H2O2 substrate in 100 mM/L Citrate buffer, pH 5.0. The plate was read with a microtiter plate reader at a wavelength of 450 nm and when the maximum-binding control wells reached an absorbance of about 1.0, the final A450 were recorded for analysis. The data were analyzed using a macro written for use with the EXCEL™ spreadsheet program. The mean, standard deviation, and % CV were determined for duplicate concentrations. The mean A450 values were normalized to the mean of four maximum-binding controls (no competitor added)(B-MAX). The normalized values were subjected to a four parameter curve fit algorithm [Rodbard et al., Int.

[2] = molecular target: T2, Human fibrinogen receptor (αIIbβ3) (Homo sapiens, UniProt P05106+P08514); assay: Purified IIb/IIIa receptor assay (solid phase receptor assay, competition with biotinylated vitronectin); format: binding; settings: read-out: IIb/IIIa IC50
T2 construct: Human fibrinogen receptor (αIIbβ3) was purified from outdated platelets; from tissue; host or cells: outdated human platelets
Description: PURIFIED IIb/IIIa RECEPTOR ASSAY
Human fibrinogen receptor (αIIbβ3) was purified from outdated platelets. […] Biotinylated human vitronectin was prepared by coupling NHS-biotin from Pierce Chemical Company (Rockford, Ill.) to purified vitronectin as previously described. […] Anti-biotin antibody was obtained from Calbiochem (La Jolla, Calif.). Linbro microtiter plates were obtained from Flow Labs (McLean, Va.). ADP reagent was obtained from Sigma (St. Louis, Mo.).
as §1
as §2, with “human fibrinogen” for “human vitronectin”, “receptor (αIIbβ3)” for “receptor (αvβ3)”, “in TBS^+++ (TBS^+++/BSA)” for “in TBS^+++(TBS^+++/BSA)”, “with […]” for “with OPD/H2O2”, “mM/L citrate” for “mM/L Citrate”, “fit algorithm, [Robard” for “fit algorithm [Rodbard”

SMILES	IC50 [1] [nM]	IC50 [2] [nM]
C#C[C@H](CC(=O)O)NC(=O)CNC(=O)c1cccc(N/C(=N\C#N)NCc2ccc(S(N)(=O)=O)cc2)c1 [Example 158, 3S-[[2-[[[3-[[[[(4-(aminosulfonyl)phenylmethyl]amino](cyanoimino)methyl]amino]phenyl]carbonyl]amino]acetyl]amino]-4-pentynoic acid, trifluoroacetate salt, monohydrate]	10.1	547
O=C(O)CC(NC(=O)CNC(=O)c1cccc(NC(=O)NCc2cc(Cl)cc(Cl)c2)c1)c1cccnc1 (stereo not drawn) [Example 273, β-[[2-[[[3-[[[[(3,5-dichlorophenyl)methyl]amino]carbonylamino]phenyl]carbonyl]amino]acetyl]amino]pyridine-3-propanoic acid, trifluoroacetate salt]	12.9	4160
CCOC(=O)CC(NC(=O)CNC(=O)c1cccc(NC(N)=S)c1)c1ccccc1 (stereo not drawn) [Example 116, ethyl β-[[2-[[[3-[(aminothioxomethyl)amino]phenyl]carbonyl]amino]acetyl]amino]benzenepropanoate]	15500	> 100000
N=C(N)Nc1cccc(C(=O)NC2CCN(CCC(=O)O)C2=O)c1 (racemic) [Example 42, (±)3-[[[3-[(aminoiminomethyl)amino]phenyl]carbonyl]amino]-2-oxopyrrolidine-1-propanoic acid, trifluoroacetate salt]	124	9800
CNC(=NC(N)=O)Nc1cccc(C(=O)NCC(=O)NC(CC(=O)O)c2cc(Cl)cc(Cl)c2)c1 (racemic) [Example 201, (±)β-[[2-[[[3-[[[(aminocarbonyl)imino)methylamino)methyl]amino]phenyl]carbonyl]amino]acetyl]amino]-3,5-dichlorobenzenepropanoic acid]	58.1	10800
N=C(N)Nc1cc(NC(=O)C(F)(F)F)cc(C(=O)NCC(=O)NC(CC(=O)O)c2cc(Cl)cc(Cl)c2)c1 (stereo not drawn) [Example 292, β-[[2-[[[3-[(aminoiminomethyl)amino]-5-(trifluoroacetyl)amino]phenyl]carbonyl]amino]acetyl]amino]-3,5-dichlorobenzenepropanoic acid, trifluoroacetate salt]	3.55	337
CCOC(=O)CC(NC(=O)CNC(=O)c1cccc(NC(=O)Nc2ccccc2)c1)c1cccnc1 (stereo not drawn) [Example 107, ethyl β-[[2-[[[3-[[(phenylamino]carbonyl]amino]phenyl]carbonyl]amino]acetyl]amino]-pyridine-3-propanoate]	6400	18700
N=C(N)Nc1cccc(C(=O)NCC(=O)NC(CC(=O)O)c2cc(F)cc(Br)c2)c1 (racemic) [Example 209, (±)β-[[2-[[[3-[(aminoiminomethyl)amino]phenyl]carbonyl]amino]acetyl]amino]-3-bromo-5-fluorobenzenepropanoic acid, trifluoroacetate salt]	0.83	140
O=C(O)CC(NC(=O)CNC(=O)c1cccc(NC(=O)NNc2ccccc2)c1)c1cccnc1 (stereo not drawn) [Example 281, β-[[2-[[[3-[[[(phenylamino)amino]carbonyl]amino]phenyl]carbonyl]amino]acetyl]amino]pyridine-3-propanoic acid, trifluoroacetate salt]	4.16	11500
C/N=C(\NC)Nc1cccc(C(=O)NCC(=O)NC(CC(=O)O)c2cc(Cl)cc(Cl)c2)c1 (racemic) [Example 294, (±)3,5-dichloro-β-[[2-[[[3-[[(methylamino)(methylimino)methyl]amino]phenyl]carbonyl]amino]acetyl]amino]benzenepropanoic acid, trifluoroacetate salt]	173	1990
N=C(N)Nc1ccc(O)c(C(=O)NCC(=O)NC(CC(=O)O)c2cc(Cl)cc(Cl)c2)c1 (stereo not drawn) [Example 279, β-[[2-[[[5-[(aminoiminomethyl)amino]-2-hydroxyphenyl]carbonyl]amino]acetyl]amino]-3,5-dichlorobenzenepropanoic acid, trifluoroacetate salt]	7.12	637
O=C(O)CC(NC(=O)CNC(=O)c1cccc(NC2=NCCCC2)c1)c1cc(Cl)cc(Cl)c1 (racemic) [Example 205, (±)3,5-dichloro-β-[[2-[[[3-[(2,3,4,5-tetrahydropyridin-6-yl)amino]phenyl]carbonyl]amino]acetyl]amino]benzenepropanoic acid, trifluoroacetate salt]	1.68	1240

Continued by falling IC50 [1], values first:

IC50 [1] [nM]	IC50 [2] [nM]	SMILES
1340	15300	COC(=O)CC(NC(=O)CNC(=O)c1cccc(NC(=N)N)c1)c1ccsc1 (racemic) [Example 57, (±)methyl β-[[2-[[[3-[(aminoiminomethyl)amino]phenyl]carbonyl]amino]acetyl]amino]thiophene-3-propanoate, trifluoroacetate salt]
575	> 100000	CCOC(=O)CC(NC(=O)CNC(=O)c1cccc(NC(N)=O)c1)c1cccnc1 (stereo not drawn) [Example 109, ethyl β-[[2-[[[3-(aminocarbonylamino]phenyl]carbonyl]amino]acetylamino]pyridine-3-propanoate, trifluoroacetate salt]
252	5560	C/N=C(/Nc1cccc(C(=O)NCC(=O)NC(CC(=O)O)c2ccc(F)cc2)c1)NC(C)C (racemic) [Example 298, (±)4-fluoro-β-[[2-[[[3-[[[(1-methylethyl)amino](methylimino)methyl]amino]phenyl]carbonyl]amino]acetyl]amino]benzenepropanoic acid, trifluoroacetate salt]
6.98	1200	CC(C)Oc1cc(OC(C)C)cc(C(CC(=O)O)NC(=O)CNC(=O)c2cccc(NC(=N)N)c2)c1 (stereo not drawn) [Example 275, β-[[2-[[[3-[(aminoiminomethyl)amino]phenyl]carbonyl]amino]acetyl]amino]-3,5-bis(1-methylethoxy)benzenepropanoic acid, trifluoroacetate salt]
2.62	343	N=C(N)Nc1cccc(C(=O)NCC(=O)NC(CC(=O)O)c2cc(Br)cc(Br)c2)c1 (racemic) [Example 210, (±)β-[[2-[[[3-[(aminoiminomethyl)amino]phenyl]carbonyl]amino]acetyl]amino]-3,5-dibromobenzenepropanoic acid, trifluoroacetate salt]
0.92	646	O=C(O)CC(NC(=O)CNC(=O)c1cccc(NC2=NCCN2)c1)c1cc(Cl)cc(Cl)c1O (racemic) [Example 238, trifluoroacetate salt, monohydrate]
